This passage reports IC50 results from patent US6608061B2, “Bisaryl compound and medicament for cancer treatment comprising the same” (Kyoma Hakko Kogyo Co., Ltd., priority 1997, dated 2003).

SMILES strings stand for the structures.

In general, IC50 refers to the midpoint of a concentration-inhibition curve.

The target in assay [1] is T1, human RNR (purified R1 and R2 subunits) (Homo sapiens, UniProt P23921+P31350).
T1 construct: made in house; host or cells: Escherichia coli BL21(λDE3)pLysS, plasmids pETR1 and pETR2 (pET3a backbone)
T1 sequence (P23921 1-792): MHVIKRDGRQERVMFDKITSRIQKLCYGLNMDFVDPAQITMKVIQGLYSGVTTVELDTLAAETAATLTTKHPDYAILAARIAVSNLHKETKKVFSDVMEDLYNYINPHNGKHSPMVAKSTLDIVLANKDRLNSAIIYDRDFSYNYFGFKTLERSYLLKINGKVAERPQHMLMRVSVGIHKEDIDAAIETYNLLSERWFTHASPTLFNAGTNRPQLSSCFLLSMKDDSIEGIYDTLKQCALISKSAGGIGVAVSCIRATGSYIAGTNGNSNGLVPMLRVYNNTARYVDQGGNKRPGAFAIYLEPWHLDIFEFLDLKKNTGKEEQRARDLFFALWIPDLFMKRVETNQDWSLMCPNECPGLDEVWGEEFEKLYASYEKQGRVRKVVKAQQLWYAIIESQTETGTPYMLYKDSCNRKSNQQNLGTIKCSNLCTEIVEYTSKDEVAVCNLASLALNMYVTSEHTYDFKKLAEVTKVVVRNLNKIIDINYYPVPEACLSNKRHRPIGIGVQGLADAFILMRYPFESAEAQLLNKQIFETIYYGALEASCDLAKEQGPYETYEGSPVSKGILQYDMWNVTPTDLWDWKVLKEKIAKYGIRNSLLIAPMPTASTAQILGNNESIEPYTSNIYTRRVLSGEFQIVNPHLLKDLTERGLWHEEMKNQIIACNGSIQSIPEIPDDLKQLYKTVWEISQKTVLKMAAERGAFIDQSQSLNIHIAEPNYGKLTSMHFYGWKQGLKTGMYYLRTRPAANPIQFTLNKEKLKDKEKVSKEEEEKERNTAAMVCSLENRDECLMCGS
T1 sequence (P31350 1-389): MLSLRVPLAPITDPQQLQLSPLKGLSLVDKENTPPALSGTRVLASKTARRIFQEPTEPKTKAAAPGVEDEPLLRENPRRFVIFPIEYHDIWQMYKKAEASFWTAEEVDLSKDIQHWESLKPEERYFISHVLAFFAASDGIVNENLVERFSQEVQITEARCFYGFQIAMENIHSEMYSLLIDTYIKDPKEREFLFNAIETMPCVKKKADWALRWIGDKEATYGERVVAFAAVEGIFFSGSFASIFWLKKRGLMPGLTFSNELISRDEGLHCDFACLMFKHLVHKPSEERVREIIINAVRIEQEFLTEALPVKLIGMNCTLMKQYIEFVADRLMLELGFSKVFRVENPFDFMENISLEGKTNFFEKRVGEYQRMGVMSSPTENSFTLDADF
Nature of the assay: In vitro measurement of human RNR inhibitory activity (conversion of CDP to dCDP, HPLC). In kind it is biochemical. Particulars: 100 μM CDP, 37° C., 30 minutes, read-out: RNR Inhibition (IC50).

The test system of another assay is HeLa S3 cells. Nature of the assay: Test for growth inhibition of HeLa S3 cells. In kind it is cell-based. Particulars: Homo sapiens, HeLa S3, 72 h, HeLa S3 cells, 72 hours with test compound, Cell Proliferation Kit II; read-out: Cell growth inhibition (IC50). How it is done:
Test for Growth Inhibition of Hela S3 Cells
HeLa S3 cells prepared at 1×10^4 cells/ml in MEM culture medium containing 10% fetal bovine serum and 2 mM glutamine were added to each well of a 96-well microtiter plate (0.1 ml for each well). The cells were cultured at 37° C. in a CO2 incubator for 24 hours, and then 0.05 ml of test compound appropriately diluted with the above medium was added to each well, and then the mixture was cultured at 37° C. in a CO2 incubator for 72 hours. After the culture supernatant was removed, each well was washed with 0.1 ml of PBS buffer twice, and 0.1 ml of the aforementioned medium was added to each well again.
Cell Proliferation Kit II (Boehringer Mennheim) was used for measurement of cell number in each well. After a coloring reaction reagent was added, the plate was warmed to 37° C. in a CO2 incubator for 3 hours. Then, absorbances at 490 nm and 655 nm were measured by a microplate reader, and a value (difference of absorbance) was calculated for each well by subtracting the absorbance at […] from the absorbance at 490 nm. By comparing the differences of absorbance for cells without treatment and cells treated with a test compound at a known concentration, a concentration of test compound which inhibited the cell growth by 50% was calculated, and the value obtained was determined as IC50. The values of RNR inhibitory activity obtained in Example 8, and the values of cell growth inhibitory activity obtained in Example 9 are shown in the following tables (the compound numbers used in the tables correspond to the compound numbers shown in the aforementioned tables).

As to `NCCN(CCSc1ccc(O)cc1)CCSc1ccc(O)cc1` [Compound 59], the IC50 in assay [1] is 5.73 µM; with HeLa S3 cells it was 5.81 µM.

On to `CC1CCc2ccccc2N1C(=O)N(CCSc1ccc(O)cc1)CCSc1ccc(O)cc1` (stereo not shown) [Compound 58], for which the half-maximal inhibitory concentration (IC50) is 4.76 µM in assay [1] and 18.6 µM in the assay with HeLa S3 cells.

Consider `Oc1ccc(SCCCSc2ccc(O)cc2)cc1` [Compound 134], for which the IC50 in assay [1] amounted to 0.68 µM; in the assay on HeLa S3 cells, 2.05 µM.

Consider `CNCC(=O)Oc1ccc(SCCN(CCSc2ccc(OC(=O)CNC)cc2)CC(N)=O)cc1` [Compound 222], for which the 50% inhibitory concentration (IC50) in assay [1] amounted to 0.43 µM; in the assay on HeLa S3 cells it was 0.36 µM.

Consider `O=C(c1cccnc1)N(CCSc1ccc(O)cc1)CCSc1ccc(O)cc1` [Compound 116], for which the IC50 in assay [1] is 4.13 µM; with HeLa S3 cells, 3.02 µM.

For the compound `OCC(O)CN(CCSc1ccc(O)cc1)CCSc1ccc(O)cc1` (stereo not shown) [Compound 201], the IC50 in assay [1] was 2.49 µM; with HeLa S3 cells, 4.29 µM.

Take `Oc1ccc(SSc2ccc(O)cc2)cc1` [Compound 131]: the results for the IC50 (in assay [1]; with HeLa S3 cells) were 6.59 µM and 128 µM, respectively.

On to `Oc1ccc(SCCN(CCSc2ccc(O)cc2)Cc2cccnc2)cc1` [Compound 99], for which the results for the IC50 (in assay [1]; in the assay on HeLa S3 cells) were 2.79 µM and 5.8 µM, respectively.

As for `C=CCN(CCSc1ccc(O)cc1)CCSc1ccc(O)cc1` [Compound 74], the IC50 in assay [1] came to 0.82 µM; with HeLa S3 cells, 2 µM.

Consider `Oc1ccc(SCCOCCOCCOCCOCCSc2ccc(O)cc2)cc1` [Compound 172], for which the concentration for half-maximal inhibition (IC50) was determined as 2.64 µM in assay [1] and 19.5 µM with HeLa S3 cells.

As for `OCCCN(CCSc1ccc(O)cc1)CCSc1ccc(O)cc1` [Compound 95], the IC50 worked out at 0.88 µM in assay [1] and 3.56 µM with HeLa S3 cells.

On to `Oc1ccc(SCCN(CCSc2ccc(O)cc2)Cc2c[nH]cn2)cc1` [Compound 196], for which the IC50 stood at 1.52 µM in assay [1] and 7.08 µM in the assay on HeLa S3 cells.

As to `CC1(C)OCC(CN(CCSc2ccc(O)cc2)CCSc2ccc(O)cc2)O1` (stereo not shown) [Compound 200], the results for the IC50 (in assay [1]; with HeLa S3 cells) were 4.2 µM and 4.13 µM, respectively.

Regarding `COCCOCCOCCN(CCSc1ccc(O)cc1)CCSc1ccc(O)cc1` [Compound 197], the results for the IC50 (in assay [1]; with HeLa S3 cells) were 3.24 µM and 4.06 µM, respectively.

On to `Oc1ccc(SCC(O)COCCOCC(O)CSc2ccc(O)cc2)cc1` (stereo not shown) [Compound 166], for which the results for the IC50 (in assay [1]; in the assay with HeLa S3 cells) were 3.09 µM and 31.2 µM, respectively.

Regarding `C#CCN(CCSc1ccc(O)cc1)CCSc1ccc(O)cc1` [Compound 73], the IC50 in assay [1] turned out to be 0.6 µM; in the assay with HeLa S3 cells, 1.61 µM.

As to `Oc1ccc(SCCN(CCSc2ccc(O)cc2)Cc2cccs2)cc1` [Compound 89], the results for the half-inhibitory concentration (IC50) (in assay [1]; in the assay on HeLa S3 cells) were 1.46 µM and 4.66 µM, respectively.

As for `OC[C@H]1OC(N(CCSc2ccc(O)cc2)CCSc2ccc(O)cc2)[C@H](O)[C@@H](O)[C@@H]1O` (stereo partly shown) [Compound 215], the IC50 in assay [1] is 3.68 µM; in the assay on HeLa S3 cells, 12.7 µM.

For `Oc1ccc(SCCN(CCSc2ccc(O)cc2)Cc2ccccc2O)cc1` [Compound 92], the IC50 in assay [1] came out at 0.89 µM; in the assay with HeLa S3 cells, 2.14 µM.

In the case of `Oc1ccc(SCCOCCOCCOCCOCCOCCSc2ccc(O)cc2)cc1` [Compound 173], the values for the IC50 (in assay [1]; in the assay with HeLa S3 cells) were 3.63 µM and 12.9 µM, respectively.

`N#CCCN(CCC#N)C(=O)CN(CCSc1ccc(O)cc1)CCSc1ccc(O)cc1` [Compound 204]: the IC50 in assay [1] is 1.5 µM; with HeLa S3 cells, 3.38 µM.

For the compound `Oc1ccc(SCCN(CCSc2ccc(O)cc2)CC2OCCO2)cc1` [Compound 88], the half-inhibitory concentration (IC50) was found to be 1.79 µM in assay [1] and 3.22 µM in the assay with HeLa S3 cells.

For `O=C(c1ccccc1)N(CCSc1ccc(O)cc1)CCSc1ccc(O)cc1` [Compound 114], the IC50 in assay [1] was 3.44 µM; with HeLa S3 cells it was 2.74 µM.

For `Oc1ccc(SCCCCCSc2ccc(O)cc2)cc1` [Compound 136], the half-inhibitory concentration (IC50) in assay [1] is 0.69 µM; with HeLa S3 cells it was 9.14 µM.

With `Oc1ccc(SCCN(CCSc2ccc(O)cc2)Cc2ccc3ccccc3n2)cc1` [Compound 101], the IC50 in assay [1] turned out to be 5.05 µM; with HeLa S3 cells, 12.9 µM.

For the compound `NC(=O)NCCN(CCSc1ccc(O)cc1)CCSc1ccc(O)cc1` [Compound 82], the IC50 was determined as 1.42 µM in assay [1] and 1.3 µM in the assay with HeLa S3 cells.

Take `OCCOCCN(CCSc1ccc(O)cc1)CCSc1ccc(O)cc1` [Compound 199]: the IC50 is 3.99 µM in assay [1] and 5.14 µM in the assay with HeLa S3 cells.

Turning to `Oc1ccc(SCCN(CCSc2ccc(O)cc2)CCC2OCCCO2)cc1` [Compound 194], the half-maximal inhibitory concentration (IC50) stood at 0.84 µM in assay [1] and 11.7 µM in the assay on HeLa S3 cells.

`O=C(CN(CCSc1ccc(O)cc1)CCSc1ccc(O)cc1)N1CCCCC1` [Compound 203]: the values for the IC50 (in assay [1]; in the assay on HeLa S3 cells) were 3.18 µM and 3.45 µM, respectively.

Turning to `O=C(N1CCOCC1)N(CCSc1ccc(O)cc1)CCSc1ccc(O)cc1` [Compound 124], the half-inhibitory concentration (IC50) in assay [1] stood at 0.09 µM; with HeLa S3 cells, 3.68 µM.

For the compound `O=C(NCCCSc1ccc(O)cc1)C1(C(=O)NCCCSc2ccc(O)cc2)CCCC1` [Compound 192], the results for the IC50 (in assay [1]; in the assay with HeLa S3 cells) were 2.85 µM and 4.51 µM, respectively.

`O=C(CN(CCSc1ccc(O)cc1)CCSc1ccc(O)cc1)NCCO` [Compound 207]: the values for the 50% inhibitory concentration (IC50) (in assay [1]; in the assay with HeLa S3 cells) were 0.87 µM and 1.71 µM, respectively.

Consider `O=C(CCN(CCSc1ccc(O)cc1)CCSc1ccc(O)cc1)N1CCCCC1` [Compound 108], for which the IC50 amounted to 0.64 µM in assay [1] and 2.64 µM in the assay with HeLa S3 cells.

Consider `COCC(=O)Oc1ccc(SCCN(CCSc2ccc(OC(=O)COC)cc2)CC(N)=O)cc1` [Compound 220], for which the IC50 in assay [1] is 5.2 µM; with HeLa S3 cells, 0.29 µM.

For `O=CN(CCSc1ccc(O)cc1)CCSc1ccc(O)cc1` [Compound 53], the IC50 in assay [1] worked out at 1.05 µM; in the assay with HeLa S3 cells, 1.71 µM.

For the compound `CC[N+](CC)(CC)CCCN(CCSc1ccc(O)cc1)CCSc1ccc(O)cc1` [Compound 213], the values for the IC50 (in assay [1]; in the assay with HeLa S3 cells) were 2.06 µM and 180 µM, respectively.

In the case of `CCN(CCSc1ccc(O)cc1)CCSc1ccc(O)cc1` [Compound 71], the figures for the IC50 (in assay [1]; with HeLa S3 cells) were 1.23 µM and 3.94 µM, respectively.

With `CCN(CC)C(=O)CCN(CCSc1ccc(O)cc1)CCSc1ccc(O)cc1` [Compound 80], the results for the IC50 (in assay [1]; in the assay on HeLa S3 cells) were 0.74 µM and 1.43 µM, respectively.

Turning to `O=C(NCCCSc1ccc(O)cc1)C1C2C=CC(C2)C1C(=O)NCCCSc1ccc(O)cc1` (stereo not shown) [Compound 191], the IC50 in assay [1] is 1.36 µM; in the assay on HeLa S3 cells, 4.78 µM.

With `N=C(N)N(CCSc1ccc(O)cc1)CCSc1ccc(O)cc1` [Compound 49], the IC50 in assay [1] is 5.45 µM; with HeLa S3 cells, 16 µM.

As to `CS(=O)(=O)N(CCSc1ccc(O)cc1)CCSc1ccc(O)cc1` [Compound 118], the values for the IC50 (in assay [1]; with HeLa S3 cells) were 6.87 µM and 7.78 µM, respectively.

Regarding `COCCOCCN(CCSc1ccc(O)cc1)CCSc1ccc(O)cc1` [Compound 198], the half-maximal inhibitory concentration (IC50) in assay [1] was found to be 4.86 µM; with HeLa S3 cells it was 4.85 µM.

Take `Oc1ccc(SCC#CCSc2ccc(O)cc2)cc1` [Compound 160]: the concentration for half-maximal inhibition (IC50) in assay [1] amounted to 0.95 µM; with HeLa S3 cells, 20.1 µM.

On to `COCCN(CCSc1ccc(O)cc1)CCSc1ccc(O)cc1` [Compound 104], for which the IC50 in assay [1] stood at 2.11 µM; in the assay on HeLa S3 cells it was 1.74 µM.
